Results published in US9957265B2, “N-(2-cyano heterocyclyl) pyrazolo pyridones as janus kinase inhibitors” (Merck Sharp & Dohme Corp., priority 2013, dated 2018).
Where two headings read alike, the source gives them in different places.

Tests used:
JAK1 = JAK1 (Homo sapiens (Human), UniProt P23458); test: Jak Biochemical HTRF Assay (JAK1); conditions: recombinant GST-tagged catalytic domain, [ATP] 31.8 μM, unit not given (compound concentrations tested given in nM)
Description: Jak Biochemical HTRF Assay Protocol
Subsequent reagent additions employed an Agilent Bravo.

JAK2 = JAK2 (Homo sapiens (Human), UniProt O60674); test: Jak Biochemical HTRF Assay (JAK2)
JAK2, sequence (O60674 849-1124): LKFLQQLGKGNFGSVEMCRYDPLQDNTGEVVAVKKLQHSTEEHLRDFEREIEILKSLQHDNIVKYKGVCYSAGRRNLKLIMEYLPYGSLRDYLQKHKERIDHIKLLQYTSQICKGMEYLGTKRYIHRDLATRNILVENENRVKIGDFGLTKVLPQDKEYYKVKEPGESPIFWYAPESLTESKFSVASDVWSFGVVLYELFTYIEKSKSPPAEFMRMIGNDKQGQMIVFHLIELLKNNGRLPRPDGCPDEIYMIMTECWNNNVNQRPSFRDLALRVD

[1] = JAK2 IC50, recombinant GST-tagged catalytic domain, [ATP] 8.5 μM, unit not given (compound concentrations tested given in nM)
[2] = read-out: JAK2 IC50, recombinant GST-tagged catalytic domain, [ATP] 8.5 μM, unit not given (compound concentrations tested given in nM)

JAK1, sequence (P23458 875-1153): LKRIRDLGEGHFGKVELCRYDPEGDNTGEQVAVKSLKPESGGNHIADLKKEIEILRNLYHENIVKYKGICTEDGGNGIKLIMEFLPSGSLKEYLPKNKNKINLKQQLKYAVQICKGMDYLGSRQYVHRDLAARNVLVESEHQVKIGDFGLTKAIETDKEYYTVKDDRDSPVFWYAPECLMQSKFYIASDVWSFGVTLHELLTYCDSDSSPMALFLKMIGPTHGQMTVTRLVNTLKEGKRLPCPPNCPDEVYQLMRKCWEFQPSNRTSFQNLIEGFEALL

Row | IC50 (JAK1) [nM] | IC50 (JAK2; [1]) [nM] | IC50 (JAK2; [2]) [nM] | SMILES
1 | 0.15 | 0.14 | – | CC1CCCN1C(c1ccc(Nc2nn([C@H]3COCC[C@@H]3C#N)c3cc[nH]c(=O)c23)cc1)C(F)(F)F (single isomer, unassigned) [Example 1-89, (3R,4S)-3-{4-oxo-3-[(4-{(1R or 1S)-2,2,2-trifluoro-1-[(2R or 2S)-2-methylpyrrolidin-1-yl]ethyl}phenyl)amino]-4,5-dihydro-1H-pyrazolo[4,3-c]pyridin-1-yl}tetrahydro-2H-pyran-4-carbonitrile]
2 | 0.24 | – | 2.11 | N#Cc1ccc(Nc2nn([C@H]3COCC[C@@H]3C#N)c3cc[nH]c(=O)c23)cc1F [Example 1-32, (3R,4S)-3-{3-[(4-cyano-3-fluorophenyl)amino]-4-oxo-4,5-dihydro-1H-pyrazolo[4,3-c]pyridin-1-yl}tetrahydro-2H-pyran-4-carbonitrile]
3 | 0.05 | – | 0.35 | CS(=O)(=O)c1ccc(Nc2nn([C@H]3COCC[C@@H]3C#N)c3cc[nH]c(=O)c23)cc1 [Example 1-2, (3R,4S)-3-(3-((4-(methylsulfonyl)phenyl)amino)-4-oxo-4,5-dihydro-1H-pyrazolo[4,3-c]pyridin-1-yl)tetrahydro-2H-pyran-4-carbonitrile]
4 | 0.22 | – | 0.41 | CC(C)CN1Cc2ccc(Nc3nn([C@H]4COCC[C@@H]4C#N)c4cc[nH]c(=O)c34)cc2C1 [Example 1-14, (3R,4S)-3-(3-{[2-(2-methylpropyl)-2,3-dihydro-1H-isoindol-5-yl]amino}-4-oxo-4,5-dihydro-1H-pyrazolo[4,3-c]pyridin-1-yl)tetrahydro-2H-pyran-4-carbonitrile]
5 | 0.35 | – | 0.7 | C[C@@H]1CN(S(=O)(=O)c2ccc(Nc3nn([C@H]4COCC[C@@H]4C#N)c4cc[nH]c(=O)c34)cc2)C[C@H](C)O1 [Example 1-73, (3R,4S)-3-{3-[(4-{[(cis)-2,6-dimethylmorpholin-4-yl]sulfonyl}phenyl)amino]-4-oxo-4,5-dihydro-1H-pyrazolo[4,3-c]pyridin-1-yl}tetrahydro-2H-pyran-4-carbonitrile]
6 | 17.3 | 21.2 | – | CC(C)(C)S(=O)(=O)c1ccc(Nc2nn([C@H]3COCCC[C@@H]3C#N)c3cc[nH]c(=O)c23)cc1 (single isomer, unassigned) [Example 1-22, (3R,4S or 3S,4R)-3-(3-{[4-(tert-butylsulfonyl)phenyl]amino}-4-oxo-4,5-dihydro-1H-pyrazolo[4,3-c]pyridin-1-yl)oxepane-4-carbonitrile]
7 | 0.08 | 0.11 | – | CC(C)NC(c1ccc(Nc2nn([C@H]3COCC[C@@H]3C#N)c3cc[nH]c(=O)c23)cc1)C(F)(F)F (single isomer, unassigned) [Example 1-52, (3R,4S)-3-{4-oxo-3-[(4-{(1R or 1S)-2,2,2-trifluoro-1-[(1-methylethyl)amino]ethyl}phenyl)amino]-4,5-dihydro-1H-pyrazolo[4,3-c]pyridin-1-yl}tetrahydro-2H-pyran-4-carbonitrile]
8 | 0.07 | 0.13 | – | CN(C)C(c1ccc(Nc2nn([C@H]3COCC[C@@H]3C#N)c3cc[nH]c(=O)c23)cc1)C(F)(F)F (single isomer, unassigned) [Example 1-58, (3R,4S)-3-[3-({4-[(1R or 1S)-1-(dimethylamino)-2,2,2-trifluoroethyl]phenyl}amino)-4-oxo-4,5-dihydro-1H-pyrazolo[4,3-c]pyridin-1-yl]tetrahydro-2H-pyran-4-carbonitrile]
9 | 0.24 | – | 0.82 | C[C@H]1CN(S(=O)(=O)c2ccc(Nc3nn([C@H]4COCC[C@@H]4C#N)c4cc[nH]c(=O)c34)cc2)C[C@H](C)O1 (stereo in doubt) [Example 1-76, (3R,4S)-3-{3-[(4-{[(trans)-2,6-dimethylmorpholin-4-yl]sulfonyl}phenyl)amino]-4-oxo-4,5-dihydro-1H-pyrazolo[4,3-c]pyridin-1-yl}tetrahydro-2H-pyran-4-carbonitrile]
10 | 0.12 | – | 0.16 | Cc1cc(Nc2nn([C@H]3COCC[C@@H]3C#N)c3cc[nH]c(=O)c23)ccc1C(=O)N1CCC(F)(F)CC1 [Example 1-35, (3R,4S)-3-(3-((4-(4,4-difluoropiperidine-1-carbonyl)-3-methylphenyl)amino)-4-oxo-4,5-dihydro-1H-pyrazolo[4,3-c]pyridin-1-yl)tetrahydro-2H-pyran-4-carbonitrile]
11 | 0.7 | – | 1.92 | CN(C)S(=O)(=O)c1ccc(Nc2nn([C@H]3COCC[C@@H]3C#N)c3cc[nH]c(=O)c23)cn1 [Example 1-67, 5-({1-[(3R,4S)-4-cyanotetrahydro-2H-pyran-3-yl]-4-oxo-4,5-dihydro-1H-pyrazolo[4,3-c]pyridin-3-yl}amino)-N,N-dimethylpyridine-2-sulfonamide]
12 | 0.08 | 0.12 | – | CCNC(c1ccc(Nc2nn([C@H]3COCC[C@@H]3C#N)c3cc[nH]c(=O)c23)cc1)C(F)(F)F (single isomer, unassigned) [Example 1-55, (3R,4S)-3-[3-({4-[(1S or 1R)-1-(ethylamino)-2,2,2-trifluoroethyl]phenyl}amino)-4-oxo-4,5-dihydro-1H-pyrazolo[4,3-c]pyridin-1-yl] tetrahydro-2H-pyran-4-carbonitrile]
13 | 0.04 | 0.09 | – | COC(C)(c1ccc(Nc2nn([C@H]3COCC[C@@H]3C#N)c3cc[nH]c(=O)c23)cc1)C(F)(F)F (single isomer, unassigned) [Example 1-33, (3R,4S)-3-(4-oxo-3-((4-((S or R)-1,1,1-trifluoro-2-methoxypropan-2-yl)phenyl)amino)-4,5-dihydro-1H-pyrazolo[4,3-c]pyridin-1-yl)tetrahydro-2H-pyran-4-carbonitrile]
14 | 0.07 | 0.15 | – | N#C[C@H]1CCOCC1n1nc(Nc2ccc(C(O)(c3ccccn3)C(F)(F)F)cc2)c2c(=O)[nH]ccc21 (single isomer, unassigned) [Example 1-96, (3R,4S)-3-(4-oxo-3-((4-((S or R)-2,2,2-trifluoro-1-hydroxy-1-(pyridin-2-yl)ethyl)phenyl)amino)-4,5-dihydro-1H-pyrazolo[4,3-c]pyridin-1-yl)tetrahydro-2H-pyran-4-carbonitrile]
15 | 0.12 | 0.14 | – | N#C[C@H]1CCOC[C@@H]1n1nc(Nc2ccc(C(NC3CCCC3)C(F)(F)F)cc2)c2c(=O)[nH]ccc21 (single isomer, unassigned) [Example 1-85, (3R,4S)-3-[3-({4-[(1R or 1S)-1-(cyclopentylamino)-2,2,2-trifluoroethyl]phenyl}amino)-4-oxo-4,5-dihydro-1H-pyrazolo[4,3-c]pyridin-1-yl]tetrahydro-2H-pyran-4-carbonitrile]
16 | 1.64 | 7.44 | – | C[S+]([O-])c1cc(Nc2nn([C@H]3COCC[C@@H]3C#N)c3cc[nH]c(=O)c23)ccc1F (single isomer, unassigned) [Example 3-3, (3R,4S)-3-(3-((4-fluoro-3-((S or R)-methylsulfinyl)phenyl)amino)-4-oxo-4,5-dihydro-1H-pyrazolo[4,3-c]pyridin-1-yl)tetrahydro-2H-pyran-4-carbonitrile]
17 | 0.05 | 0.17 | – | CC1CCN1S(=O)(=O)c1ccc(Nc2nn([C@H]3COCC[C@@H]3C#N)c3cc[nH]c(=O)c23)cc1 (single isomer, unassigned) [Example 1-77, (3R,4S)-3-{3-[(4-{[(2R or 2S)-2-methylazetidin-1-yl]sulfonyl}phenyl)amino]-4-oxo-4,5-dihydro-1H-pyrazolo[4,3-c]pyridin-1-yl}tetrahydro-2H-pyran-4-carbonitrile]
18 | 0.3 | – | 0.3 | CC(C)NC(C)(C)c1ccc(Nc2nn([C@H]3COCC[C@@H]3C#N)c3cc[nH]c(=O)c23)cc1 [Example 1-61, (3R,4S)-3-{3-[(4-{1-methyl-1-[(1-methylethyl)amino]ethyl}phenyl)amino]-4-oxo-4,5-dihydro-1H-pyrazolo[4,3-c]pyridin-1-yl}tetrahydro-2H-pyran-4-carbonitrile]
19 | 0.18 | 0.52 | – | CC1CN(S(=O)(=O)c2ccc(Nc3nn([C@H]4COCC[C@@H]4C#N)c4cc[nH]c(=O)c34)cc2)CCO1 (single isomer, unassigned) [Example 1-74, (3R,4S)-3-{3-[(4-{[(2S or 2R)-2-methylmorpholin-4-yl]sulfonyl}phenyl)amino]-4-oxo-4,5-dihydro-1H-pyrazolo[4,3-c]pyridin-1-yl}tetrahydro-2H-pyran-4-carbonitrile]
20 | 0.14 | 0.54 | – | CC1CN(S(=O)(=O)c2ccc(Nc3nn([C@H]4COCC[C@@H]4C#N)c4cc[nH]c(=O)c34)cc2)CCO1 (single isomer, unassigned) [Example 1-75, (3R,4S)-3-{3-[(4-{[(2R or 2S)-2-methylmorpholin-4-yl]sulfonyl}phenyl)amino]-4-oxo-4,5-dihydro-1H-pyrazolo[4,3-c]pyridin-1-yl}tetrahydro-2H-pyran-4-carbonitrile]
21 | 0.5 | 1.06 | – | CC(C)(C)CNC(c1ccc(Nc2nn([C@H]3COCC[C@@H]3C#N)c3cc[nH]c(=O)c23)cc1)C(F)(F)F (single isomer, unassigned) [Example 1-83, (3R,4S)-3-{3-[(4-{(1R or 1S)-1-[(2,2-dimethylpropyl)amino]-2,2,2-trifluoroethyl}phenyl)amino]-4-oxo-4,5-dihydro-1H-pyrazolo[4,3-c]pyridin-1-yl} tetrahydro-2H-pyran-4-carbonitrile]
22 | 0.04 | – | 0.34 | CN1Cc2cc(Nc3nn([C@H]4COCC[C@@H]4C#N)c4cc[nH]c(=O)c34)ccc2S1(=O)=O [Example 1-4, (3R,4S)-3-(3-((2-methyl-1,1-dioxido-2,3-dihydrobenzo[d]isothiazol-5-yl)amino)-4-oxo-4,5-dihydro-1H-pyrazolo[4,3-c]pyridin-1-yl)tetrahydro-2H-pyran-4-carbonitrile]
